Measurements as given in ChEMBL document CHEMBL5357010, “Amine Basicity of Quinoline ATP Synthase Inhibitors Drives Antibacterial Activity against Pseudomonas aeruginosa” (ACS Med Chem Lett, 2024).
In brackets after ≈: the same amount, converted by molar mass.

Key:
[1] = Selectivity ratio of IC50 for Pseudomonas aeruginosa 9027 electron transport chain to IC50 for Pseudomonas aeruginosa ATP synthase; format: toxicity
[2] = Inhibition of Pseudomonas aeruginosa 9027 electron transport chain in inverted membrane vesicles assessed as fluorescence quenching using amino-6-chloro-2-methoxyacridine; format: cell membranes
[3] = Inhibition of Pseudomonas aeruginosa ATP synthase expressed in Escherichia coli DK8/pASH20 inverted membrane vesicles by luciferin/luciferase luminescence assay; format: cell membranes, Membrane vesicle
Pseudomonas aeruginosa [4] = test: Antibacterial activity against Pseudomonas aeruginosa ATCC BAA-2109 assessed as growth inhibition incubated for 12 to 15 hrs by broth microdilution method; format: functional; details: time 12-15 hrs
Pseudomonas aeruginosa [5] = test: Antibacterial activity against Pseudomonas aeruginosa ATCC BAA-2108 assessed as growth inhibition incubated for 12 to 15 hrs by broth microdilution method; format: functional; details: time 12-15 hrs
Pseudomonas aeruginosa [6] = test: Antibacterial activity against Pseudomonas aeruginosa ATCC BAA-2110 assessed as growth inhibition incubated for 12 to 15 hrs by broth microdilution method; format: functional; details: time 12-15 hrs
Pseudomonas aeruginosa [7] = test: Antibacterial activity against Pseudomonas aeruginosa 9027 assessed as growth inhibition incubated for 12 to 15 hrs by broth microdilution method; format: functional; details: time 12-15 hrs
Pseudomonas aeruginosa [8] = test: Antibacterial activity against Pseudomonas aeruginosa efflux knockout GKCW120 (Pdelta6) assessed as growth inhibition incubated for 12 to 15 hrs by broth microdilution method; format: functional; details: time 12-15 hrs
[9] = Inhibition of Escherichia coli electron transport chain in inverted membrane vesicles; format: cell membranes
[10] = Solubility of the compound in antibacterial activity assay medium; format: physicochemical

Q: With `CN(C)CCCCNCc1cc2ccccc2nc1SCc1ccccc1` as the compound, how does the “Ratio IC50” value [1] read?
A: 26

Q: And the IC50 [2]?
A: 26 µg/mL (≈ 68.5 µM)

Q: What about the IC50 [3] of the same compound?
A: 1 µg/mL (≈ 2.63 µM)

Q: For `CSc1nc2ccccc2cc1CNCCc1cnc[nH]1`, which IC50 [3] is on record?
A: 16 µg/mL (≈ 53.6 µM)

Q: Which IC50 [3] does the source give for `CSc1nc2ccccc2cc1CNCCc1nc(C)cc(C)n1` here?
A: 67 µg/mL (≈ 198 µM)

Q: For `CN(C)Cc1ccc(CNCc2cc3ccccc3nc2SCc2ccccc2)cc1`, which “MIC>85” value (Pseudomonas aeruginosa [4]) is on record?
A: >128 µg/mL

Q: What about the “MIC>85” value (Pseudomonas aeruginosa [5]) of the same compound?
A: 64 µg/mL (≈ 150 µM)

Q: What about the “Ratio IC50” value [1] of the same compound?
A: 12

Q: What about the “MIC>85” value (Pseudomonas aeruginosa [6]) of the same compound?
A: >128 µg/mL

Q: And the IC50 [2]?
A: 27 µg/mL (≈ 63.1 µM)

Q: And the “MIC>85” value (Pseudomonas aeruginosa [7])?
A: >128 µg/mL

Q: What about the IC50 [3] of the same compound?
A: 2.3 µg/mL (≈ 5.38 µM)

Q: And the “MIC>85” value (Pseudomonas aeruginosa [8])?
A: 16 µg/mL (≈ 37.4 µM)

Q: What does the source list for `c1ccc(CSc2nc3ccccc3cc2CNCCc2cnc[nH]2)cc1`?
A: IC50 [9]: 14 µg/mL (≈ 37.4 µM); IC50 [2]: 7 µg/mL (≈ 18.7 µM); IC50 [3]: 2 µg/mL (≈ 5.34 µM)

Q: With `Cn1cccc1CCNCc1cc2ccccc2nc1SCc1ccccc1` as the compound, how does the IC50 [3] read?
A: 4 µg/mL (≈ 10.3 µM)

Q: With `CSc1nc2ccccc2cc1CNCCc1cccn1C` as the compound, how does the IC50 [3] read?
A: 5 µg/mL (≈ 16.1 µM)

Q: Which IC50 [3] does the source give for `CSc1nc2ccccc2cc1CNCc1ccc(N(C)C)cc1` here?
A: 5 µg/mL (≈ 14.8 µM)

Q: For `CSc1nc2ccccc2cc1CNCCCCN(C)C`, which IC50 [3] is on record?
A: 68 µg/mL (≈ 224 µM)

Q: For `CN(C)c1ccc(CNCc2cc3ccccc3nc2SCc2ccccc2)cc1`, which solubility [10] is on record?
A: > 16 µg/mL

Q: For `CCN1CCC(CCNCc2cc3ccccc3nc2SC)CC1`, which IC50 [3] is on record?
A: 39 µg/mL (≈ 114 µM)

Q: What does the source list for `CN(C)CCCNCc1cc2ccccc2nc1SCc1ccccc1`?
A: Ratio IC50 [1]: 7; IC50 [2]: 44 µg/mL (≈ 120 µM); IC50 [3]: 6 µg/mL (≈ 16.4 µM)

Q: Which IC50 [3] does the source give for `CSc1nc2ccccc2cc1CNCCC1CCN(C2CCCC2)CC1` here?
A: 21 µg/mL (≈ 54.7 µM)

Q: With `CCN1CCC(CCNCc2cc3ccccc3nc2SCc2ccccc2)CC1` as the compound, how does the “Ratio IC50” value [1] read?
A: 26

Q: And the IC50 [2]?
A: 26 µg/mL (≈ 62 µM)

Q: What about the IC50 [3] of the same compound?
A: 1 µg/mL (≈ 2.38 µM)

Q: Which IC50 [3] does the source give for `Cc1cc(C)nc(CCNCc2cc3ccccc3nc2SCc2ccccc2)n1` here?
A: 3 µg/mL (≈ 7.24 µM)

Q: Which IC50 [3] does the source give for `CSc1nc2ccccc2cc1CNCCCN(C)C` here?
A: 43 µg/mL (≈ 149 µM)

Q: What does the source list for `c1ccc(CSc2nc3ccccc3cc2CNCCC2CCN(C3CCCC3)CC2)cc1`?
A: Ratio IC50 [1]: 14; IC50 [2]: 14 µg/mL (≈ 30.5 µM); IC50 [3]: 1 µg/mL (≈ 2.18 µM)

Q: For `CSc1nc2ccccc2cc1CNCCCCCN(C)C`, which IC50 [3] is on record?
A: 19 µg/mL (≈ 59.8 µM)

Q: Which results are given for GENTAMICIN?
A: MIC>85 (Pseudomonas aeruginosa [4]): 2 µg/mL; MIC>85 (Pseudomonas aeruginosa [5]): 16 µg/mL; MIC>85 (Pseudomonas aeruginosa [6]): 4 µg/mL; MIC>85 (Pseudomonas aeruginosa [7]): 2 µg/mL; MIC>85 (Pseudomonas aeruginosa [8]): > 4 µg/mL

Q: For `CSc1nc2ccccc2cc1CNCc1ccc(CN(C)C)cc1`, which “MIC>85” value (Pseudomonas aeruginosa [4]) is on record?
A: 256 µg/mL (≈ 728 µM)

Q: What about the “MIC>85” value (Pseudomonas aeruginosa [5]) of the same compound?
A: 128 µg/mL (≈ 364 µM)

Q: And the “Ratio IC50” value [1]?
A: 1

Q: What about the “MIC>85” value (Pseudomonas aeruginosa [6]) of the same compound?
A: >256 µg/mL

Q: What about the IC50 [2] of the same compound?
A: 29 µg/mL (≈ 82.5 µM)

Q: And the “MIC>85” value (Pseudomonas aeruginosa [7])?
A: >256 µg/mL

Q: And the IC50 [3]?
A: 30 µg/mL (≈ 85.3 µM)

Q: And the “MIC>85” value (Pseudomonas aeruginosa [8])?
A: 64 µg/mL (≈ 182 µM)

Q: What does the source list for `CN(C)CCCCCNCc1cc2ccccc2nc1SCc1ccccc1`?
A: Ratio IC50 [1]: 28; IC50 [2]: 57 µg/mL (≈ 145 µM); IC50 [3]: 2 µg/mL (≈ 5.08 µM)
